Measurements published in PubChem BioAssay AID256 (DTP/NCI, 2004).
Where “and” joins values, the source holds several entries; their conditions need not be identical. Equal entries are not always repeated. Toxic doses and inconclusive results are not listed. The calls were made as follows: active = survival T/C of 150% or more; inactive = T/C below 125% in these data.

Tested on: CD2F1 mice, L1210 leukemia ip, survival T/C
Assay: NCI In Vivo Anticancer Drug Screen. Data for tumor model L1210 Leukemia (intraperitoneal) in CD2F1 (CDF1) mice
Settings: higher = longer survival
In short: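 Transplantable tumor in mice; compound-treated vs vehicle-treated groups. Read-out = treated/control ratio of the measured endpoint.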

[1] = endpoint: median survival time, dose: 25.0 mg/kg/injection, schedule: Q01DX009 (ip), vehicle: saline
[2] = endpoint: mean survival time, dose: 100.0 mg/kg/injection, schedule: Q01DX009 (ip), vehicle: saline with Tween-80
[3] = endpoint: mean survival time, dose: 100.0 mg/kg/injection, schedule: Q04DX003 (ip), vehicle: saline with Tween-80
[4] = endpoint: mean survival time, dose: 200.0 mg/kg/injection, schedule: Q01DX009 (ip), vehicle: saline with Tween-80
[5] = endpoint: mean survival time, dose: 200.0 mg/kg/injection, schedule: Q04DX003 (ip), vehicle: saline with Tween-80
[6] = endpoint: mean survival time, dose: 400.0 mg/kg/injection, schedule: Q01DX009 (ip), vehicle: saline with Tween-80
[7] = endpoint: mean survival time, dose: 400.0 mg/kg/injection, schedule: Q04DX003 (ip), vehicle: saline with Tween-80
[8] = endpoint: mean survival time, dose: 100.0 mg/kg/injection, schedule: Q01DX001 (ip), vehicle: saline
[9] = endpoint: mean survival time, dose: 100.0 mg/kg/injection, schedule: Q01DX001 (ip), vehicle: saline with Tween-80
[10] = endpoint: mean survival time, dose: 200.0 mg/kg/injection, schedule: Q01DX001 (ip), vehicle: saline with Tween-80
[11] = endpoint: mean survival time, dose: 400.0 mg/kg/injection, schedule: Q01DX001 (ip), vehicle: saline with Tween-80
[12] = endpoint: mean survival time, dose: 100.0 mg/kg/injection, schedule: Q04DX003 (ip), vehicle: saline
[13] = endpoint: mean survival time, dose: 200.0 mg/kg/injection, schedule: Q04DX003 (ip), vehicle: saline
[14] = endpoint: mean survival time, dose: 400.0 mg/kg/injection, schedule: Q04DX003 (ip), vehicle: saline
[15] = endpoint: mean survival time, dose: 100.0 mg/kg/injection, schedule: Q01DX009 (ip), vehicle: saline
[16] = endpoint: mean survival time, dose: 200.0 mg/kg/injection, schedule: Q01DX009 (ip), vehicle: saline
[17] = endpoint: mean survival time, dose: 400.0 mg/kg/injection, schedule: Q01DX009 (ip), vehicle: saline
[18] = endpoint: mean survival time, dose: 50.0 mg/kg/injection, schedule: Q01DX009 (ip), vehicle: saline with Tween-80

Measured: T/C

O=c1ncccn1[C@@H]1O[C@H](CO)[C@H](O)C1O (stereo partly specified)
inactive: [1] 114 % of control and 109 % of control | endpoint: median survival time, dose: 75.0 mg/kg/injection, schedule: Q04DX003 (ip), vehicle: saline 102 % of control | endpoint: median survival time, dose: 100.0 mg/kg/injection, schedule: Q01DX009 (oral), vehicle: saline 102 % of control | endpoint: median survival time, dose: 125.0 mg/kg/injection, schedule: Q01DX001 (oral), vehicle: saline 101 % of control | endpoint: median survival time, dose: 150.0 mg/kg/injection, schedule: Q04DX003 (ip), vehicle: saline 106 % of control | endpoint: median survival time, dose: 200.0 mg/kg/injection, schedule: Q01DX009 (oral), vehicle: saline 110 % of control | endpoint: median survival time, dose: 250.0 mg/kg/injection, schedule: Q01DX001 (oral), vehicle: saline 102 % of control | endpoint: median survival time, dose: 300.0 mg/kg/injection, schedule: Q04DX003 (ip), vehicle: saline 111 % of control | endpoint: median survival time, dose: 500.0 mg/kg/injection, schedule: Q01DX001 (oral), vehicle: saline 105 % of control | endpoint: median survival time, dose: 600.0 mg/kg/injection, schedule: Q04DX003 (ip), vehicle: saline 114 % of control | endpoint: median survival time, dose: 1000.0 mg/kg/injection, schedule: Q01DX001 (oral), vehicle: saline 107 % of control | endpoint: median survival time, dose: 1200.0 mg/kg/injection, schedule: Q04DX003 (ip), vehicle: saline 113 % of control | endpoint: median survival time, dose: 2000.0 mg/kg/injection, schedule: Q01DX001 (oral), vehicle: saline 115 % of control
active: endpoint: median survival time, dose: 800.0 mg/kg/injection, schedule: Q01DX009 (oral), vehicle: saline 177 % of control | endpoint: median survival time, dose: 1600.0 mg/kg/injection, schedule: Q01DX009 (oral), vehicle: saline 212 % of control

c1ccc(C(=NCCN=C(c2ccccc2)c2ccccc2)c2ccccc2)cc1
inactive: [2] 97 % of control | [3] 97 % of control | [4] 92 % of control | [5] 97 % of control | [6] 95 % of control | [7] 97 % of control

c1ccc(-c2n[nH]c3ccccc23)cc1
inactive: endpoint: median survival time, dose: 50.0 mg/kg/injection, schedule: Q04DX002 (ip), vehicle: saline with Tween-80 100 % of control | endpoint: median survival time, dose: 100.0 mg/kg/injection, schedule: Q04DX002 (ip), vehicle: saline with Tween-80 100 % of control | endpoint: median survival time, dose: 200.0 mg/kg/injection, schedule: Q04DX002 (ip), vehicle: saline with Tween-80 100 % of control

O=C(O)c1cccc([N+](=O)[O-])c1C(=O)c1ccccc1
inactive: [2] 107 % of control | [4] 102 % of control

O=C1c2cccc(O)c2C(=O)c2c(O)cccc21
inactive: [8] 100 % of control | endpoint: mean survival time, dose: 200.0 mg/kg/injection, schedule: Q01DX001 (ip), vehicle: saline 102 % of control | endpoint: mean survival time, dose: 400.0 mg/kg/injection, schedule: Q01DX001 (ip), vehicle: saline 100 % of control

CCOc1ccc(/C=N/NC(=O)c2ccccc2NC(=O)C2CC2)cc1OC
inactive: [9] 98 % of control | [10] 94 % of control | [11] 94 % of control

COC(=O)C(=O)c1ccccc1
inactive: [12] 96 % of control | [13] 102 % of control | [14] 103 % of control

O=C(O)C(=O)O.[NH-]C1CCCCC1C1CCCCC1[NH-].[Pt+2] (stereo unspecified)
inactive: endpoint: mean survival time, dose: 3.12 mg/kg/injection, schedule: Q04DX003 (ip), vehicle: distilled water + Tween-80 112 % of control | endpoint: mean survival time, dose: 6.25 mg/kg/injection, schedule: Q04DX003 (ip), vehicle: distilled water + Tween-80 119 % of control
active: endpoint: mean survival time, dose: 25.0 mg/kg/injection, schedule: Q04DX003 (ip), vehicle: distilled water + Tween-80 160 % of control | endpoint: mean survival time, dose: 50.0 mg/kg/injection, schedule: Q04DX003 (ip), vehicle: distilled water + Tween-80 238 % of control

O=C1C=CC(n2cc(F)c(=O)[nH]c2=O)O1 (stereo unspecified)
inactive: endpoint: median survival time, dose: 6.25 mg/kg/injection, schedule: Q01DX009 (ip), vehicle: saline with Tween-80 122 % of control | endpoint: median survival time, dose: 6.25 mg/kg/injection, schedule: Q01DX009 (ip), vehicle: saline 113 % of control and 115 % of control | endpoint: median survival time, dose: 12.5 mg/kg/injection, schedule: Q01DX009 (ip), vehicle: saline 121 % of control | [1] 122 % of control | endpoint: median survival time, dose: 100.0 mg/kg/injection, schedule: Q01DX009 (ip), vehicle: saline with Tween-80 91 % of control | endpoint: median survival time, dose: 100.0 mg/kg/injection, schedule: Q01DX009 (ip), vehicle: saline 96 % of control and 108 % of control
active: endpoint: median survival time, dose: 50.0 mg/kg/injection, schedule: Q01DX009 (ip), vehicle: saline 150 % of control and 162 % of control

O/N=C/c1cccc[n+]1Cc1ccccc1
inactive: endpoint: mean survival time, dose: 1.56 mg/kg/injection, schedule: Q01DX009 (ip), vehicle: Klucel (hydroxypropylcellulose) (HPC) 107 % of control | endpoint: mean survival time, dose: 3.13 mg/kg/injection, schedule: Q01DX009 (ip), vehicle: Klucel (hydroxypropylcellulose) (HPC) 106 % of control | endpoint: mean survival time, dose: 6.25 mg/kg/injection, schedule: Q01DX009 (ip), vehicle: Klucel (hydroxypropylcellulose) (HPC) 102 % of control | endpoint: mean survival time, dose: 12.5 mg/kg/injection, schedule: Q01DX009 (ip), vehicle: Klucel (hydroxypropylcellulose) (HPC) 106 % of control | endpoint: mean survival time, dose: 25.0 mg/kg/injection, schedule: Q01DX009 (ip), vehicle: Klucel (hydroxypropylcellulose) (HPC) 95 % of control | endpoint: mean survival time, dose: 25.0 mg/kg/injection, schedule: Q01DX009 (ip), vehicle: water 100 % of control

CC(C)c1ccc(-n2cnc3c(=O)[nH]c(N)nc32)cc1
inactive: [9] 94 % of control | [10] 94 % of control | [11] 91 % of control

O=C(CN1CC1)NCCCCCCCNC(=O)CN1CC1
active: endpoint: mean survival time, dose: 14.6 mg/kg/injection, schedule: Q01DX001 (ip), vehicle: carboxymethylcellulose (CMC) 158 % of control | endpoint: mean survival time, dose: 50.0 mg/kg/injection, schedule: Q01DX001 (ip), vehicle: carboxymethylcellulose (CMC) 150 % of control

CC(C)OC(=O)Nc1ccc(F)cc1F
inactive: [3] 96 % of control | [5] 102 % of control | [7] 98 % of control

CCCCCCCCCCCCc1ccc(CSC(C(=O)OC)C(SCc2ccc(CCCCCCCCCCCC)cc2)C(=O)OC)cc1 (stereo unspecified)
inactive: [15] 102 % of control | [16] 100 % of control | [17] 104 % of control

N#CCC(=O)N/N=C/c1ccccc1
inactive: [2] 91 % of control | [4] 86 % of control

O=c1ccc2c([nH]1)CCCC2
inactive: [18] 92 % of control | [2] 103 % of control | [4] 103 % of control

Clc1ccc(-c2cc(-c3ccc(Cl)cc3)cc(-c3ccc(Cl)cc3)c2)cc1
inactive: [2] 101 % of control | [4] 106 % of control | [6] 105 % of control

O=[N+]([O-])c1ccc(/C=N/O)o1
inactive: endpoint: mean survival time, dose: 12.5 mg/kg/injection, schedule: Q01DX001 (ip), vehicle: saline 93 % of control and 101 % of control | endpoint: mean survival time, dose: 25.0 mg/kg/injection, schedule: Q01DX001 (ip), vehicle: saline 102 % of control | endpoint: mean survival time, dose: 50.0 mg/kg/injection, schedule: Q01DX001 (ip), vehicle: saline 97 % of control and 102 % of control | [8] 100 % of control and 101 % of control and 102 % of control | endpoint: mean survival time, dose: 150.0 mg/kg/injection, schedule: Q01DX001 (ip), vehicle: saline 100 % of control

COc1ccc(CN(CCO)CCCCCCN(CCO)Cc2ccc(OC)cc2)cc1
inactive: endpoint: mean survival time, dose: 25.0 mg/kg/injection, schedule: Q01DX009 (ip), vehicle: saline with Tween-80 93 % of control | [18] 96 % of control | [2] 98 % of control | endpoint: median survival time, dose: 50.0 mg/kg/injection, schedule: Q04DX002 (ip), vehicle: saline 100 % of control | endpoint: median survival time, dose: 100.0 mg/kg/injection, schedule: Q04DX002 (ip), vehicle: saline 100 % of control

O=[N+]([O-])c1ccc(Cl)c(S(=O)O)c1
inactive: [15] 95 % of control | [12] 110 % of control | [16] 106 % of control | [13] 102 % of control | [17] 103 % of control | [14] 106 % of control

O=[N+]([O-])c1ccc(CNc2ncnc3c2ncn3C2OC(CO)C(O)C2O)cc1 (stereo unspecified)
inactive: endpoint: mean survival time, dose: 75.0 mg/kg/injection, schedule: Q01DX001 (ip), vehicle: other 106 % of control | endpoint: mean survival time, dose: 150.0 mg/kg/injection, schedule: Q01DX001 (ip), vehicle: other 112 % of control | endpoint: mean survival time, dose: 300.0 mg/kg/injection, schedule: Q01DX001 (ip), vehicle: other 100 % of control

CCC(=O)O[C@H]1CC[C@H]2[C@@H]3[C@@H](C)CC4=CC(=O)CC[C@]4(C)[C@H]3CC[C@]12C
inactive: [9] 91 % of control | [10] 94 % of control | [11] 94 % of control

O=C1C2C(C(=O)N1c1ccc(F)c([N+](=O)[O-])c1)C1(Cl)C(Cl)=C(Cl)C2(Cl)C1(Cl)Cl (stereo unspecified)
inactive: [18] 108 % of control | [2] 116 % of control | [4] 111 % of control
